In ChEMBL document CHEMBL4507286 (2021):
Calls of active or inactive are those of the source. No cut-off for these calls is given here.

Assays:
[1] = target: Tyrosine-protein kinase ABL1 (Homo sapiens) (UniProt P00519)
[2] = target: Leukocyte tyrosine kinase receptor (Homo sapiens) (UniProt P29376)
[3] = target: GABA-A receptor; anion channel (Rattus norvegicus) (UniProt O09028+P15431+P18506+P18508+P19969+P20236+P23574+P23576+P28471+P28473+P30191+P62813+P63079+P63138+Q91ZM7+Q9ES14); details: Compound concentration 10.0 uM
[4] = target: 5-hydroxytryptamine receptor 1E (Homo sapiens) (UniProt P28566); details: Compound concentration 10.0 uM
[5] = target: Mitogen-activated protein kinase kinase kinase kinase 1 (Homo sapiens) (UniProt Q92918)
[6] = target: Delta-type opioid receptor (Homo sapiens) (UniProt P41143); details: Compound concentration 10.0 uM
[7] = target: Serine/threonine-protein kinase PLK3 (Homo sapiens) (UniProt Q9H4B4)
[8] = target: Serine/threonine-protein kinase tousled-like 1 (Homo sapiens) (UniProt Q9UKI8)
[9] = target: Protein kinase C theta type (Homo sapiens) (UniProt Q04759)
[10] = target: D(2) dopamine receptor (Homo sapiens) (UniProt P14416); details: Compound concentration 10.0 uM
[11] = target: Alpha-1D adrenergic receptor (Homo sapiens) (UniProt P25100); details: Compound concentration 10.0 uM
[12] = target: 5-hydroxytryptamine receptor 2B (Homo sapiens, UniProt P41595); test: GPCRScan assay: inhibition of 5-HT2B; design: radioligand conc. used [nm] 1.0 – 2.0, parental cells stable HEK
[13] = target: Dual specificity mitogen-activated protein kinase kinase 3 (Homo sapiens) (UniProt P46734)
[14] = target: Dual specificity protein kinase TTK (Homo sapiens) (UniProt P33981)
[15] = target: Mitogen-activated protein kinase kinase kinase 6 (Homo sapiens) (UniProt O95382)
[16] = target: Sigma intracellular receptor 2 (Homo sapiens) (UniProt Q5BJF2); details: Compound concentration 10.0 uM
[17] = target: Sigma non-opioid intracellular receptor 1 (Homo sapiens) (UniProt Q99720); details: Compound concentration 10.0 uM
[18] = target: Dual specificity protein kinase CLK2 (Homo sapiens, UniProt P49760); test: Invitrogen kinase screen (CLK2)
[19] = NanoBRET (MAPK1, SGC Frankfurt); details: Homo sapiens
[20] = target: 5-hydroxytryptamine receptor 6 (Homo sapiens) (UniProt P50406); details: Compound concentration 10.0 uM
[21] = target: Muscarinic acetylcholine receptor M1 (Homo sapiens) (UniProt P11229); details: Compound concentration 10.0 uM
[22] = target: Serine/threonine-protein kinase haspin (Homo sapiens, UniProt Q8TF76); test: Inhibition of GSG2 at compound concentration of 10.0 uM using the ScanMax (DiscoverX)
[23] = target: T1, Mitogen-activated protein kinase 1 (Homo sapiens, UniProt P28482); test: Cell Assay: Inhibition of RSK phosphorylation (pRSK A375SM); type: cell-based, A375-SM
[24] = target: Serine/threonine-protein kinase MARK2 (Homo sapiens, UniProt Q7KZI7); test: Invitrogen kinase screen (MARK2)
[25] = target: Cyclin-dependent kinase 7 (Homo sapiens, UniProt P50613); test: Inhibition of CDK7 at compound concentration of 10.0 uM using the ScanMax (DiscoverX)
[26] = target: Beta-2 adrenergic receptor (Homo sapiens) (UniProt P07550); details: Compound concentration 10.0 uM
[27] = target: Serine/threonine-protein kinase Sgk1 (Homo sapiens, UniProt O00141); test: Invitrogen kinase screen (SGK)
[28] = target: T1, Mitogen-activated protein kinase 1; test: Cell Assay: Inhibition of RSK phosphorylation (pRSK with 40% mouse serum )
[29] = target: T1, Mitogen-activated protein kinase 1; test: Cell Assay: Inhibition of RSK phosphorylation (pRSK with 40% human serum)
[30] = target: cGMP-dependent protein kinase 2 (Homo sapiens, UniProt Q13237); test: Invitrogen kinase screen (PRKG2)
[31] = target: Serine/threonine-protein kinase ULK1 (Homo sapiens, UniProt O75385); test: Inhibition of ULK1 at compound concentration of 10.0 uM using the ScanMax (DiscoverX)
[32] = target: Glycogen synthase kinase-3 alpha (Homo sapiens, UniProt P49840); test: Invitrogen kinase screen (GSK3A)
[33] = target: T1, Mitogen-activated protein kinase 1
[34] = target: Cyclin-dependent kinase 5 (Homo sapiens, UniProt Q00535); test: Invitrogen kinase screen (CDK5)
[35] = target: Serine/threonine-protein kinase TBK1 (Homo sapiens, UniProt Q9UHD2); test: Invitrogen kinase screen (TBK1)
[36] = NanoBRET (MAPK3, SGC Frankfurt); details: Homo sapiens
[37] = target: Cyclin-dependent kinase 2 (Homo sapiens, UniProt P24941); test: Invitrogen kinase screen (CDK2)
[38] = target: Serine/threonine-protein kinase 26 (Homo sapiens, UniProt Q9P289); test: Invitrogen kinase screen (STK26)
[39] = target: G protein-coupled receptor kinase 3 (Homo sapiens, UniProt P35626); test: Inhibition of GRK3 at compound concentration of 10.0 uM using the ScanMax (DiscoverX)
[40] = target: T1, Mitogen-activated protein kinase 1; test: Invitrogen kinase screen (MAPK1)
[41] = target: Glycogen synthase kinase-3 beta (Homo sapiens, UniProt P49841); test: Invitrogen kinase screen (GSK3B)
[42] = target: Dual specificity protein kinase CLK4 (Homo sapiens, UniProt Q9HAZ1); test: Inhibition of CLK4 at compound concentration of 10.0 uM using the ScanMax (DiscoverX)
[43] = target: 5-hydroxytryptamine receptor 1B (Homo sapiens) (UniProt P28222); details: Compound concentration 10.0 uM
[44] = Compound concentration 1000.0 nM
[45] = Compound concentration 100.0 nM

T1 sequence (P28482 whole entry): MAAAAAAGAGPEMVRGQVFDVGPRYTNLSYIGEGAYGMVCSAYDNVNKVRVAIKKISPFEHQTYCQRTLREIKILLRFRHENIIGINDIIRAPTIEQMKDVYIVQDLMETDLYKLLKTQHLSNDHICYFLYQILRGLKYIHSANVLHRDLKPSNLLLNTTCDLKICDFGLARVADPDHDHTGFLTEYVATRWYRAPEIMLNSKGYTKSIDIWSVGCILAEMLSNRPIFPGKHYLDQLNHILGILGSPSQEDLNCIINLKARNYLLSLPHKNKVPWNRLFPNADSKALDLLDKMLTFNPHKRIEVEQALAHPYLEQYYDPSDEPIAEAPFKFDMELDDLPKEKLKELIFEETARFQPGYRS
Chain of Serine/threonine-protein kinase PLK3 (Homo sapiens) (Q9H4B4 whole entry, looked up): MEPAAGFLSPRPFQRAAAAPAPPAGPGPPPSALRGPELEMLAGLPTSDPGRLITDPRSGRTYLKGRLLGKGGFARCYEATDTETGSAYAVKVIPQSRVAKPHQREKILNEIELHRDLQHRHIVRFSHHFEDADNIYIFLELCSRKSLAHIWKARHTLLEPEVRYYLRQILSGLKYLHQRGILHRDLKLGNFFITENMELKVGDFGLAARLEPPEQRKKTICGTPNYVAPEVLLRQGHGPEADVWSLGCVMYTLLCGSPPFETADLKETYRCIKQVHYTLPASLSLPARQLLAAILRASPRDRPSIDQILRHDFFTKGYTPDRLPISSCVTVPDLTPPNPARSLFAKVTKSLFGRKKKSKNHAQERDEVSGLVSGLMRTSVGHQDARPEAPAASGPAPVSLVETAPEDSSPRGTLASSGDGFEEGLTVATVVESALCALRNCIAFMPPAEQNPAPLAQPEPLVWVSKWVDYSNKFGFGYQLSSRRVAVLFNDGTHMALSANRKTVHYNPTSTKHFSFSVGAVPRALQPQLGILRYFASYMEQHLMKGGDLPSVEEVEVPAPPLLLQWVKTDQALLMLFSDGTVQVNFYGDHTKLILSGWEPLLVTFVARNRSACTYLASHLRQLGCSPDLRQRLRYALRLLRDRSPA
Chain of Protein kinase C theta type (Homo sapiens) (Q04759 whole entry, looked up): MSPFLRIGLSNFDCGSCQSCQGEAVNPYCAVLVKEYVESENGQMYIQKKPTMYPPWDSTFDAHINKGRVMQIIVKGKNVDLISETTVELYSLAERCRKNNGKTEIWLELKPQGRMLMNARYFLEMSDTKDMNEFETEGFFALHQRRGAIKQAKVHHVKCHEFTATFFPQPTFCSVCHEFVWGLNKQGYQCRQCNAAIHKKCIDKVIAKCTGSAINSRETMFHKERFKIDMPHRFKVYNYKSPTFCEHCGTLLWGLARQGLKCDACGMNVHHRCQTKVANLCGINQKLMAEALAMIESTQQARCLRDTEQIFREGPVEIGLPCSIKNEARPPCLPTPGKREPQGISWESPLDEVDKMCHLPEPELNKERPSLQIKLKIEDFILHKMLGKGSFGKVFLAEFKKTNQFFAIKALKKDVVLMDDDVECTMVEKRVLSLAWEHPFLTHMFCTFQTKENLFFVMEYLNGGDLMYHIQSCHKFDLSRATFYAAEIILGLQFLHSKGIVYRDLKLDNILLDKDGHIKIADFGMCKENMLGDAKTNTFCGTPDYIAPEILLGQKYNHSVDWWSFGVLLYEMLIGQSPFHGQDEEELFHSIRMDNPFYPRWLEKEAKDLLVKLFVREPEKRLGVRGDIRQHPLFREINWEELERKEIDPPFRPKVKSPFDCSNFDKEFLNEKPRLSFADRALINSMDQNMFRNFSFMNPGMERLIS
Chain of Mitogen-activated protein kinase kinase kinase 6 (Homo sapiens) (O95382 whole entry): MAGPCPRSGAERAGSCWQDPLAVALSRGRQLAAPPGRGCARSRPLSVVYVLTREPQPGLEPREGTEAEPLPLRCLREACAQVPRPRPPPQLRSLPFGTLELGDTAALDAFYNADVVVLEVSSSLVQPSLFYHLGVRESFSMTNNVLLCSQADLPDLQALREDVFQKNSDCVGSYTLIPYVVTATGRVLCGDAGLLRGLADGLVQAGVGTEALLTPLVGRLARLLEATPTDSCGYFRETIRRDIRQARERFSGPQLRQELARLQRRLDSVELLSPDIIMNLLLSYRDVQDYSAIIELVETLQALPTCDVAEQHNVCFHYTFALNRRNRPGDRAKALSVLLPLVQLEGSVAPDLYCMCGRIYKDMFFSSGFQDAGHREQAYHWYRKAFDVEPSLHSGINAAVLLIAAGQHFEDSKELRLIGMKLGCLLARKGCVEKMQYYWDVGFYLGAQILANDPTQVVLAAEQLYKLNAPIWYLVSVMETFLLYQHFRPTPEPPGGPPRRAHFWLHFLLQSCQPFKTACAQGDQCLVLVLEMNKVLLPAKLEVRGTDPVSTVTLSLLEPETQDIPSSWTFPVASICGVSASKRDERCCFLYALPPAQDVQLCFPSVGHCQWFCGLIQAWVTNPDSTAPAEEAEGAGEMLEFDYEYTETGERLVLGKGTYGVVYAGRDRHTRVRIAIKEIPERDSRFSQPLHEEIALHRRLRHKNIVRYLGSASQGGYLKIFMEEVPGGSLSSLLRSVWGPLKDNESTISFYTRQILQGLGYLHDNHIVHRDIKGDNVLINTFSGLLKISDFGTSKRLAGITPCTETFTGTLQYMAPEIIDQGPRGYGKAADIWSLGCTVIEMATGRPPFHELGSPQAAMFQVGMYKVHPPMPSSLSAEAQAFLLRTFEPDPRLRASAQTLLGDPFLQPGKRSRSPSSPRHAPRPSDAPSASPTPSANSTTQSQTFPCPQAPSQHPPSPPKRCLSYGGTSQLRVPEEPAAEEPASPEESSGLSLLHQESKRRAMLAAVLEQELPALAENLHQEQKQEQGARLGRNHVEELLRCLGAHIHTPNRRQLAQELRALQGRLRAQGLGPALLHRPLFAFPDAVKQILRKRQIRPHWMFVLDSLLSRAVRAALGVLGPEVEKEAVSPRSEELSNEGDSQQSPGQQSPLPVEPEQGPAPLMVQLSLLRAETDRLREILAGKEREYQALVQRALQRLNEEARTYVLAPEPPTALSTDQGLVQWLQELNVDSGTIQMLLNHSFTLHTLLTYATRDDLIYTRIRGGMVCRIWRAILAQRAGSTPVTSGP
Chain of Tyrosine-protein kinase ABL1 (Homo sapiens) (P00519 whole entry): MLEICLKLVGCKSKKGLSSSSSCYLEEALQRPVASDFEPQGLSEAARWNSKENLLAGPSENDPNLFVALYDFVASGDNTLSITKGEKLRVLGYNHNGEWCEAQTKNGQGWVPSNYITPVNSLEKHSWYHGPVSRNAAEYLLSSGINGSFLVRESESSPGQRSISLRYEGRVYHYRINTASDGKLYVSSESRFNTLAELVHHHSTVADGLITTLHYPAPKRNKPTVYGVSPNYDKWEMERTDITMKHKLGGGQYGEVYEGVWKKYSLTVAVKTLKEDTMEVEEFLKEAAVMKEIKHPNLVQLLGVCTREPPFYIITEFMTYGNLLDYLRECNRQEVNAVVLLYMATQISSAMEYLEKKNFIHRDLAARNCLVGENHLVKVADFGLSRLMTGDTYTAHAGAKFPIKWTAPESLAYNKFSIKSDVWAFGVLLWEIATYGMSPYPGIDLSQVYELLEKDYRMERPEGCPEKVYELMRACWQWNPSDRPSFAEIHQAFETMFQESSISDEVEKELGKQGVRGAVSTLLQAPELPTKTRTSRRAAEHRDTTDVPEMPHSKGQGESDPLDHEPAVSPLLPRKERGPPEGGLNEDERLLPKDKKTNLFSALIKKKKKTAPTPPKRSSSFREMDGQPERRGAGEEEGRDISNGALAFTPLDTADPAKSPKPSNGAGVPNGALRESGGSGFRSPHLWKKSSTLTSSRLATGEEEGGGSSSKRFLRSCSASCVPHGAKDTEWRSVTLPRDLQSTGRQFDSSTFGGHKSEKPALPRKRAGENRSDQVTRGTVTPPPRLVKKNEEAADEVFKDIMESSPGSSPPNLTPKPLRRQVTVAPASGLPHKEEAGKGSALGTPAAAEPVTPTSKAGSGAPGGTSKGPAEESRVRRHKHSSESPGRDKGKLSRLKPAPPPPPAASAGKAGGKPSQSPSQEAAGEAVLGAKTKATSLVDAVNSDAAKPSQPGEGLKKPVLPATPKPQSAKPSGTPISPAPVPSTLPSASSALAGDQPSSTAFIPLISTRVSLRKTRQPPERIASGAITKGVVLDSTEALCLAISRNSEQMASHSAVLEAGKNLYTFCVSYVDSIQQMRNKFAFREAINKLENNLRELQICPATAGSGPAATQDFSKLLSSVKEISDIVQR
Chain of Dual specificity mitogen-activated protein kinase kinase 3 (Homo sapiens) (P46734 whole entry): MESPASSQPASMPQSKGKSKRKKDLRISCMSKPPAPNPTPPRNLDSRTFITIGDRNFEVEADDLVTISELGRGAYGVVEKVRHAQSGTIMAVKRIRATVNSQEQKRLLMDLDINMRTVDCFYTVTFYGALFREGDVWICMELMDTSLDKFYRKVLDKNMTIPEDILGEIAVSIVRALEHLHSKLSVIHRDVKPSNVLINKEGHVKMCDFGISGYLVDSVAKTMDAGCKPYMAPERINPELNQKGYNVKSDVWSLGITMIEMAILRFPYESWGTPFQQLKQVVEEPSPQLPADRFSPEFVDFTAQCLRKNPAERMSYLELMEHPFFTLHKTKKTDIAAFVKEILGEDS
Chain of Glycogen synthase kinase-3 beta (P49841 whole entry): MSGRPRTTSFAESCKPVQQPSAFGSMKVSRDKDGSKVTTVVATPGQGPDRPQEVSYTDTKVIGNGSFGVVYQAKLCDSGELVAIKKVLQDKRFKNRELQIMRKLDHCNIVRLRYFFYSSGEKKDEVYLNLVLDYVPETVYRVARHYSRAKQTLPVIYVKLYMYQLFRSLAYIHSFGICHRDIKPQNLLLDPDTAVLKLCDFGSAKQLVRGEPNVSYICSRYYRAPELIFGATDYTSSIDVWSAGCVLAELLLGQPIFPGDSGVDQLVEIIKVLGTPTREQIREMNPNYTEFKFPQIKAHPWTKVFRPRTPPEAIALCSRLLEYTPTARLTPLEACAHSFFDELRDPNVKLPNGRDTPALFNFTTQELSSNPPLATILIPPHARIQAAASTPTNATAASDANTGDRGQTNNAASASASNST

Compound: C[C@H](NC(=O)Nc1cc2[nH]ncc2c(CO)n1)c1ccccn1 [ERKi-NC]
- residual activity [1, 44]: 51.5%
- residual activity [2, 44]: 100%
- inhibition [3]: 25.5%
- inhibition [4]: -8.44%
- residual activity [5, 44]: 93.8%
- inhibition [6]: 2.71%
- residual activity [7, 44]: 68.7%
- residual activity [8, 44]: 100%
- residual activity [9, 44]: 100%
- inhibition [10]: 17.7%
- inhibition [11]: -7.9%
- Ki [12]: 538 nM
- residual activity [13, 44]: 76.3%
- residual activity [14, 44]: 80.3%
- residual activity [15, 44]: 67.4%
- inhibition [16]: 20.8%
- inhibition [17]: 12.8%

Compound: C[C@@H](NC(=O)Nc1cc2[nH]ncc2c(CO)n1)c1ccccc1 [ERKi]
- IC50 [18]: 940 nM (not active)
- EC50 [19]: 95 nM (active)
- IC50 [19]: 850 nM (active)
- inhibition [20]: 8.67%
- residual activity [1, 45]: 85.9%
- inhibition [21]: -1.16%
- residual activity [2, 45]: 98.5%
- Kd [22]: 130 nM (not active)
- IC50 [23]: 280 nM (active)
- IC50 [24]: 1400 nM (not active)
- residual activity [5, 45]: 96.9%
- Kd [25]: 230 nM (not active)
- inhibition [26]: 1.36%
- IC50 [27]: 270 nM (not active)
- IC50 [28]: 788 nM (active)
- residual activity [7, 45]: 89%
- IC50 [29]: 225 nM (active)
- IC50 [30]: 950 nM (not active)
- Kd [31]: 140 nM (not active)
- IC50 [32]: 210 nM (not active)
- Kd [33]: 4.8 nM (active)
- IC50 [34]: 1200 nM (not active)
- residual activity [8, 45]: 80.3%
- residual activity [9, 45]: 100%
- IC50 [35]: 770 nM (not active)
- EC50 [36]: 32 nM (active)
- IC50 [36]: 6690 nM
- IC50 [37]: 790 nM (not active)
- IC50 [38]: 880 nM (not active)
- Kd [39]: 140 nM (not active)
- residual activity [13, 45]: 77%
- IC50 [40]: 4 nM (active)
- IC50 [41]: 540 nM (not active)
- residual activity [14, 45]: 85.2%
- residual activity [15, 45]: 99.3%
- Kd [42]: 230 nM (not active)
- inhibition [43]: 4.23%
